The values that follow come from PMC12663214, “Synthesis, structural elucidation, and molecular docking of diclofenac-derived hydrazone metal complexes with anti-inflammatory and anticancer potential” (Scientific Reports, 2025).

Where “and” joins values, the source holds several entries; their conditions need not be identical. Equal values may be shown once. Read-outs that look alike come from different tables or passages of the source.

Usually IC50 stands for the concentration that inhibits the measured activity by half. In general, inhibition refers to the drop in the measured response relative to a control, in per cent. Read a low inhibition as little suppression.

Data set [1] concerns MCF-7 (breast cancer) cell line. The following applies: cited from earlier work.
Data set [2] deals with HepG-2 (liver cancer) cell line. The following applies: cited from earlier work.
Data set [3] addresses T1, recombinant COX-2 (human) (Homo sapiens, UniProt P35354).
T1 construct: purchased Cayman Chemical 560131
T1 sequence (P35354 18-604): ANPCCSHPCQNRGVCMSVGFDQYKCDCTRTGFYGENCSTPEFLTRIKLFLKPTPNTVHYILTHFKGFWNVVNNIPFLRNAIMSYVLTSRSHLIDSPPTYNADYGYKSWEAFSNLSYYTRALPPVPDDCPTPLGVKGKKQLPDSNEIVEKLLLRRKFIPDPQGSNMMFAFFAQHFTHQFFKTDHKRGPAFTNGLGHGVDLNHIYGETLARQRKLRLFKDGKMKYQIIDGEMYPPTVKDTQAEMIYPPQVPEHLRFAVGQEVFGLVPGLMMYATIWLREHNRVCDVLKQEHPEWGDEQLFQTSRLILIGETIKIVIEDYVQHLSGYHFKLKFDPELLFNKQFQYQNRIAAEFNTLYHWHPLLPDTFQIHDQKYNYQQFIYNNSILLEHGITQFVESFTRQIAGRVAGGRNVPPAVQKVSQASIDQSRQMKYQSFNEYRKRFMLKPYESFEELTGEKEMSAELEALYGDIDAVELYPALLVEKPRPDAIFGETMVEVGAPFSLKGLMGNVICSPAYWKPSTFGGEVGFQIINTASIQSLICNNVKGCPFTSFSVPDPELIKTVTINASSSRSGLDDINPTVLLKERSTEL
The data set can be described thus: COX-2 inhibition, ELISA kit (Cayman Chemical). The class given is biochemical. To be noted: for COX-2 selectivity index (S.I.): ratio of COX-1 IC50 to COX-2 IC50; for IC50: human recombinant COX-2, ELISA. An excerpt:
(§1) These enzymes are crucial targets in the development of anti-inflammatory agents due to their roles in prostaglandin synthesis, with COX-1 associated with normal physiological functions and COX-2 predominantly involved in inflammation.
(In general: An ELISA detects its analyte on a solid surface through an enzyme-linked reagent.)

The target in the next data set is T2, COX-1 (ovine) (Ovis aries, UniProt P05979).
T2 construct: purchased Cayman Chemical 560131
T2 sequence (P05979 25-600): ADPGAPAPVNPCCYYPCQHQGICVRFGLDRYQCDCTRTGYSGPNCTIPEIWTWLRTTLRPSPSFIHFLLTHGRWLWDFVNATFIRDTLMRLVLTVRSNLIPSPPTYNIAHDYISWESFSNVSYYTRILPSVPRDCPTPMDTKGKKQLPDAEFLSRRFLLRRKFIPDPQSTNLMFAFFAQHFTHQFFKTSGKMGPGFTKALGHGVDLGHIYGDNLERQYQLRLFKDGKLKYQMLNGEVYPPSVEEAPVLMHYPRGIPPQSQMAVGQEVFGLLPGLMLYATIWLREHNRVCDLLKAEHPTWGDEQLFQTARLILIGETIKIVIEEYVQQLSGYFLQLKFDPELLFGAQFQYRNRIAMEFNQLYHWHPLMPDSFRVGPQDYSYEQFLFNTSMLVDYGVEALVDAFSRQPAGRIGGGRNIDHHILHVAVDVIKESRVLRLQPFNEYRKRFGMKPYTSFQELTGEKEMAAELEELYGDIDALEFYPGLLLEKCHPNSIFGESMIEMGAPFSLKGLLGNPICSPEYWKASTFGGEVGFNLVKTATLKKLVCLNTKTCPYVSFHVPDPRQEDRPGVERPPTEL
The data set can be described thus: COX-1 inhibition, ELISA kit (Cayman Chemical). The class given is biochemical. The following applies: ovine COX-1, ELISA.
Excerpt: as §1

Data set [4] relates to MCF-7 (breast cancer) cell line. The data set can be described thus: MTT cytotoxicity assay, MCF-7. The following applies: for IC50: MTT, MCF-7. Type of data set: cell-based, homo sapiens, human. How it is done:
(§2) MCF-7 and HepG-2 cell lines (provided by the Cell Culture Department, VACSERA, Egypt) were seeded in each 96-well tissue culture plate well at a concentration of 1 × 10^5 cells/ml, adding 100 µl/well. Incubation at 37 °C followed for 24 h until a full monolayer was established. The growth medium was later aspirated, and the cell monolayer was rinsed twice using wash media. It was then subjected to a two-fold dilution in an RPMI medium containing 2% serum, which is regarded as a maintenance medium. Later, 0.1 ml of each dilution was added to individual wells. Three wells were reserved for use as controls and received only the maintenance medium. The plate was then incubated at 37 °C and further monitored accordingly. The marks of toxicity to be checked on the cells include disruption of the cell monolayer, cell rounding and shrinking, or the appearance of granules. MTT solution is prepared from BIO BASIC CANADA INC with a 5 mg/ml strength in PBS. To ensure the MTT and media are well mixed, add 20 µl of MTT solution to each well and shake the plate. The MTT will be metabolized by incubating the plate at 37 °C with 5% CO2 for one to five hr. If there is any residual substance, get rid of the rest by drying the plate on paper towels. Add DMSO (200 µl) to dissolve the formazan (MTT metabolic product) and then put the plate on the shaking table set at 150 rpm for 5 min to assure that the formazan is fully dissolved into the solvent. Measure the optical density at 560 nm and subtract the background signal at 620 nm. The optical density value reflects directly the number of cells[28]–[30]. MCF-7 (breast cancer) and HepG-2 (liver cancer) cell lines.
(§3) The antitumor effects of the newly synthesized HDN ligand and its metal complexes with Cu(II) and Gd(III) were tested against MCF-7 (breast cancer) and HepG-2 (liver cancer) cell lines using the MTT assay[28]–[30].. This method measures cell viability based on mitochondrial activity, clearly indicating each compound’s cytotoxic potential. The key findings from these tests are outlined in Tables 4, S8, and S9 and illustrated in Figures S21-S31.
For orientation: Tetrazolium assays rely on reduction of a dye to a coloured formazan, in cell work by metabolically active cells.

For data set [5], the system named is HepG-2 (liver cancer) cell line. The data set can be described thus: MTT cytotoxicity assay, HepG-2. The class given is cell-based, homo sapiens, human. To be noted: for IC50: MTT, HepG-2. How it is done: as §2, §3
A short description of data set [6]: Solubility in organic solvents. Type of data set: physicochemical.

Consider `O=c1[nH]cc(F)c(=O)[nH]1` [5-Fluorouracil], for which the results for the IC50 in data set [1] (ref [55],[56]) and in data set [2] (ref [55],[56]) were 3.95 µM and 32.5 µM, respectively.

Regarding `O.O=C(Cc1ccccc1Nc1c(Cl)cccc1Cl)NN=Cc1c([O-])ccc2ccccc12.[Ag+]` [Ag(I)-HDN, [Ag(DN)(H2O)]], the “COX-2 selectivity index (S.I.)” value in data set [3] was 14.15.

Take `N.N.[Cl][Pt][Cl]` [Cisplatin]: the IC50 in data set [1] (ref [57],[58]) was 15.2 µM; in data set [2] (ref [57],[58]) it was 8.45 µM.

As to `O=C(Cc1ccccc1Nc1c(Cl)cccc1Cl)NN=Cc1c([O-])ccc2ccccc12.O=C(Cc1ccccc1Nc1c(Cl)cccc1Cl)NN=Cc1c([O-])ccc2ccccc12.[Co+2]` [Co(II)-HDN, [Co(DN)2]], the IC50 on COX-1 (ovine) came to 8.5 µM. Further, in data set [3], the IC50 worked out at 0.62 µM and the “COX-2 selectivity index (S.I.)” value is given as 13.71.

Take `O=C(O)Cc1ccccc1Nc1c(Cl)cccc1Cl` [Diclofenac sodium]: the IC50 is 1790 µM in data set [1] (ref [54],[64]) and 147 µM in data set [2] (ref [54],[64]).

As to `O.O.O.O.O=C(Cc1ccccc1Nc1c(Cl)cccc1Cl)NN=Cc1c(O)ccc2ccccc12.O=C(Cc1ccccc1Nc1c(Cl)cccc1Cl)NN=Cc1c(O)ccc2ccccc12.O=[N+]([O-])[O-].O=[N+]([O-])[O-].O=[N+]([O-])[O-].[Gd+3]` [Gd(III)-HDN, [Gd(HDN)2(NO3)2]NO3.4H2O], the IC50 came out at 6 µM on COX-1 (ovine), 0.95 µM in data set [3], 0.8 µM in data set [4] and 2.47 µM in data set [5]. Moreover, the “COX-2 selectivity index (S.I.)” value in data set [3] came to 6.31. Further, the Inhibition % in data set [4] (MCF-7, 0.31 µM/ml) is 18.33%; in data set [4] (MCF-7, 0.62 µM/ml), 50.83%; in data set [4] (MCF-7, 1.25 µM/ml), 70.06%; in data set [4] (MCF-7, 2.50 µM/ml) it was 75.34%; in data set [4] (MCF-7, 5.00 µM/ml), 96.71%; in data set [4] (MCF-7, 10.00 µM/ml), 96.86%. Further, the Inhibition % result in data set [4] (MCF-7, 10.00 µM/ml, listed as Gd(III) complex) is given as “exceeding 95%”; in data set [5] (HepG-2, 0.31 µM/ml), 0.45%; in data set [5] (HepG-2, 0.62 µM/ml), 0.40%; in data set [5] (HepG-2, 1.25 µM/ml), 7.98%; in data set [5] (HepG-2, 2.50 µM/ml) it was 53.05%; in data set [5] (HepG-2, 5.00 µM/ml), 81.14%. For the same molecule, the Inhibition % in data set [5] (HepG-2, 10.00 µM/ml) is 95.27%; in data set [5] (HepG-2, 10.00 µM/ml, listed as Gd(III) complex), “exceeding 95%”.

Consider `CC(C)Cc1ccc(C(C)C(=O)O)cc1` (centres unmarked) [Ibuprofen], for which the IC50 in data set [1] (ref [54]) was 5060 µM.

In the case of `O=C(Cc1ccccc1Nc1c(Cl)cccc1Cl)N/N=C/c1c(O)ccc2ccccc12` [Ligand [HDN], (E)−2-(2-((2,6-dichlorophenyl)amino)phenyl)-N’-((2-hydroxynaphthalen-1-yl)methylene)acetohydrazide], the IC50 on COX-1 (ovine) is 10.5 µM; in data set [3] it was 0.06 µM; in data set [4] (Homo sapiens, MCF7), 178 µM and 82.6 µg/mL; in data set [5] (Homo sapiens, HepG2) it was 152 µM and 70.5 µg/mL. For the same molecule, in data set [3], the “COX-2 selectivity index (S.I.)” value came to 174.5. For the same molecule, the inhibition at 31.25 µg/mL in data set [4] (Homo sapiens, MCF7, MCF-7, 31.25 µg/ml) came to 7.98%; in data set [5] (Homo sapiens, HepG2, HepG-2, 31.25 µg/ml), 12.9%. Also, the inhibition at 62.5 µg/mL in data set [4] (Homo sapiens, MCF7, MCF-7, 62.5 µg/ml) was 52.5%; in data set [5] (Homo sapiens, HepG2, HepG-2, 62.5 µg/ml), 61.4%. Also, the inhibition at 250 µg/mL was 89.2% in data set [4] (Homo sapiens, MCF7, MCF-7, 250 µg/ml) and 96.9% in data set [5] (Homo sapiens, HepG2, HepG-2, 250 µg/ml). The inhibition at 500 µg/mL came out at 97.3% in data set [4] (Homo sapiens, MCF7, MCF-7, 500 µg/ml) and 97.2% in data set [5] (Homo sapiens, HepG2, HepG-2, 500 µg/ml). Besides, the inhibition at 1000 µg/mL in data set [4] (Homo sapiens, MCF7, MCF-7, 1000 µg/ml) was determined as 97.5%; in data set [5] (Homo sapiens, HepG2, HepG-2, 1000 µg/ml), 97%. Moreover, in data set [6] (organic solvent: acetone), the solubility in acetone result was “slight solubility”. The “solubility in DMSO and DMF” value in data set [6] (organic solvents: DMSO, DMF) is “dissolved well”. The “solubility in EtOH and MeOH” value in data set [6] (organic solvents: EtOH, MeOH) is “didn’t dissolve”.

On to [Cu(DN)2]2.5H2O [Cu(II)-HDN], for which the Inhibition % worked out at 16.98% in data set [4] (MCF-7, 0.31 µM/ml); 63.27% in data set [4] (MCF-7, 0.62 µM/ml); 84.90% in data set [4] (MCF-7, 1.25 µM/ml); 97.18% in data set [4] (MCF-7, 2.50 µM/ml); 97.39% in data set [4] (MCF-7, 5.00 µM/ml); 97.49% in data set [4] (MCF-7, 10.00 µM/ml). The Inhibition % result in data set [4] (MCF-7, 10.00 µM/ml, listed as Cu(II) complex) was “exceeding 95%”; in data set [5] (HepG-2, 0.31 µM/ml), 2.96%; in data set [5] (HepG-2, 0.62 µM/ml), 35.16%; in data set [5] (HepG-2, 1.25 µM/ml) it was 61.65%; in data set [5] (HepG-2, 2.50 µM/ml), 85.53%; in data set [5] (HepG-2, 5.00 µM/ml) it was 97.32%. Also, the Inhibition % in data set [5] (HepG-2, 10.00 µM/ml) is recorded as 97.38%; in data set [5] (HepG-2, 10.00 µM/ml, listed as Cu(II) complex), “exceeding 95%”. The IC50 in data set [4] was determined as 0.65 µM; in data set [5] it was 1 µM. The “times more potent than 5-fluorouracil” value in data set [4] (breast cancer cells (MCF-7), from IC50 values) was “approximately six”.
